Numbers after ± are expanded uncertainties.
Experiments:
[1] = 298.15 K, 101.33 kPa, Liquid; for viscosity: Capillary tube (Ostwald / Ubbelohde) method; for speed of sound: Sing-around technique in a fixed-path interferometer; for mass density: Vibrating tube method
[2] = xn = mol fraction of the nth substance listed; settings: 298.15 K, 101.33 kPa, Liquid; for viscosity: Capillary tube (Ostwald / Ubbelohde) method; for speed of sound: Sing-around technique in a fixed-path interferometer; for mass density: Vibrating tube method

CC(C)c1ccccc1 [isopropylbenzene]
viscosity [1]: 0.739 ± 0.02 mPa·s
speed of sound [1]: 1338 ± 5 m/s
mass density [1]: 857.1 ± 2.3 kg/m3

Cc1ccc(C)cc1 [1,4-dimethylbenzene]
viscosity [1]: 0.609 ± 0.016 mPa·s
speed of sound [1]: 1316 ± 5 m/s
mass density [1]: 856.1 ± 2.3 kg/m3

CC(=O)CC(C)C [4-methylpentan-2-one] + CC(C)c1ccccc1
viscosity ([2]; x2 = 0): 0.55 ± 0.015 mPa·s
speed of sound ([2]; x2 = 0): 1215 ± 5 m/s
mass density ([2]; x2 = 0): 796 ± 2.1 kg/m3

CC(=O)CC(C)C [4-methylpentan-2-one] + Cc1cccc(C)c1
viscosity ([2]; x2 = 0): 0.55 ± 0.015 mPa·s
viscosity ([2]; x2 = 0.0586): 0.554 ± 0.015 mPa·s
viscosity ([2]; x2 = 0.1483): 0.558 ± 0.015 mPa·s
viscosity ([2]; x2 = 0.2898): 0.564 ± 0.015 mPa·s
viscosity ([2]; x2 = 0.4312): 0.567 ± 0.015 mPa·s
viscosity ([2]; x2 = 0.5762): 0.569 ± 0.015 mPa·s
viscosity ([2]; x2 = 0.7187): 0.572 ± 0.015 mPa·s
viscosity ([2]; x2 = 0.8591): 0.577 ± 0.015 mPa·s
viscosity ([2]; x2 = 0.9429): 0.582 ± 0.015 mPa·s
speed of sound ([2]; x2 = 0): 1215 ± 5 m/s
speed of sound ([2]; x2 = 0.0586): 1207 ± 5 m/s
speed of sound ([2]; x2 = 0.1483): 1212 ± 5 m/s
speed of sound ([2]; x2 = 0.2898): 1233 ± 5 m/s
speed of sound ([2]; x2 = 0.4312): 1257 ± 5 m/s
speed of sound ([2]; x2 = 0.5762): 1280 ± 5 m/s
speed of sound ([2]; x2 = 0.7187): 1299 ± 5 m/s
speed of sound ([2]; x2 = 0.8591): 1314 ± 5 m/s
speed of sound ([2]; x2 = 0.9429): 1321 ± 5 m/s
mass density ([2]; x2 = 0): 796 ± 2.1 kg/m3
mass density ([2]; x2 = 0.0586): 801.4 ± 2.1 kg/m3
mass density ([2]; x2 = 0.1483): 809.5 ± 2.1 kg/m3
mass density ([2]; x2 = 0.2898): 821.2 ± 2.2 kg/m3
mass density ([2]; x2 = 0.4312): 830.5 ± 2.2 kg/m3
mass density ([2]; x2 = 0.5762): 837.4 ± 2.2 kg/m3
mass density ([2]; x2 = 0.7187): 842.8 ± 2.2 kg/m3
mass density ([2]; x2 = 0.8591): 849 ± 2.2 kg/m3
mass density ([2]; x2 = 0.9429): 854.4 ± 2.3 kg/m3

Cc1ccccc1C [1,2-dimethylbenzene] + CC(=O)CC(C)C
viscosity ([2]; x1 = 1): 0.769 ± 0.02 mPa·s
speed of sound ([2]; x1 = 1): 1349 ± 5 m/s
mass density ([2]; x1 = 1): 875.2 ± 2.3 kg/m3

CC(C)c1ccccc1 [isopropylbenzene] + CC(=O)CC(C)C
viscosity ([2]; x1 = 0.0518): 0.563 ± 0.015 mPa·s
viscosity ([2]; x1 = 0.1305): 0.579 ± 0.015 mPa·s
viscosity ([2]; x1 = 0.2631): 0.6 ± 0.016 mPa·s
viscosity ([2]; x1 = 0.4022): 0.621 ± 0.016 mPa·s
viscosity ([2]; x1 = 0.5439): 0.645 ± 0.017 mPa·s
viscosity ([2]; x1 = 0.6917): 0.672 ± 0.018 mPa·s
viscosity ([2]; x1 = 0.842): 0.704 ± 0.019 mPa·s
viscosity ([2]; x1 = 0.9355): 0.725 ± 0.019 mPa·s
viscosity ([2]; x1 = 1): 0.739 ± 0.02 mPa·s
speed of sound ([2]; x1 = 0.0518): 1227 ± 5 m/s
speed of sound ([2]; x1 = 0.1305): 1231 ± 5 m/s
speed of sound ([2]; x1 = 0.2631): 1234 ± 5 m/s
speed of sound ([2]; x1 = 0.4022): 1246 ± 5 m/s
speed of sound ([2]; x1 = 0.5439): 1262 ± 5 m/s
speed of sound ([2]; x1 = 0.6917): 1282 ± 5 m/s
speed of sound ([2]; x1 = 0.842): 1309 ± 5 m/s
speed of sound ([2]; x1 = 0.9355): 1325 ± 5 m/s
speed of sound ([2]; x1 = 1): 1338 ± 5 m/s
mass density ([2]; x1 = 0.0518): 799.4 ± 2.1 kg/m3
mass density ([2]; x1 = 0.1305): 804.6 ± 2.1 kg/m3
mass density ([2]; x1 = 0.2631): 813.4 ± 2.1 kg/m3
mass density ([2]; x1 = 0.4022): 822.6 ± 2.2 kg/m3
mass density ([2]; x1 = 0.5439): 831.5 ± 2.2 kg/m3
mass density ([2]; x1 = 0.6917): 840.3 ± 2.2 kg/m3
mass density ([2]; x1 = 0.842): 848.7 ± 2.2 kg/m3
mass density ([2]; x1 = 0.9355): 853.7 ± 2.3 kg/m3
mass density ([2]; x1 = 1): 857.1 ± 2.3 kg/m3

Cc1cccc(C)c1 [1,3-dimethylbenzene] + CC(=O)CC(C)C
viscosity ([2]; x1 = 1): 0.587 ± 0.016 mPa·s
speed of sound ([2]; x1 = 1): 1323 ± 5 m/s
mass density ([2]; x1 = 1): 859.4 ± 2.3 kg/m3

CC(=O)CC(C)C [4-methylpentan-2-one] + Cc1ccccc1C
viscosity ([2]; x2 = 0): 0.55 ± 0.015 mPa·s
viscosity ([2]; x2 = 0.0598): 0.562 ± 0.015 mPa·s
viscosity ([2]; x2 = 0.1483): 0.577 ± 0.015 mPa·s
viscosity ([2]; x2 = 0.2932): 0.605 ± 0.016 mPa·s
viscosity ([2]; x2 = 0.4368): 0.631 ± 0.017 mPa·s
viscosity ([2]; x2 = 0.582): 0.662 ± 0.018 mPa·s
viscosity ([2]; x2 = 0.7227): 0.694 ± 0.018 mPa·s
viscosity ([2]; x2 = 0.8635): 0.73 ± 0.019 mPa·s
viscosity ([2]; x2 = 0.9457): 0.751 ± 0.02 mPa·s
speed of sound ([2]; x2 = 0): 1215 ± 5 m/s
speed of sound ([2]; x2 = 0.0598): 1214 ± 5 m/s
speed of sound ([2]; x2 = 0.1483): 1220 ± 5 m/s
speed of sound ([2]; x2 = 0.2932): 1237 ± 5 m/s
speed of sound ([2]; x2 = 0.4368): 1263 ± 5 m/s
speed of sound ([2]; x2 = 0.582): 1294 ± 5 m/s
speed of sound ([2]; x2 = 0.7227): 1318 ± 5 m/s
speed of sound ([2]; x2 = 0.8635): 1336 ± 5 m/s
speed of sound ([2]; x2 = 0.9457): 1345 ± 5 m/s
mass density ([2]; x2 = 0): 796 ± 2.1 kg/m3
mass density ([2]; x2 = 0.0598): 801.3 ± 2.1 kg/m3
mass density ([2]; x2 = 0.1483): 808.9 ± 2.1 kg/m3
mass density ([2]; x2 = 0.2932): 820.7 ± 2.2 kg/m3
mass density ([2]; x2 = 0.4368): 832.2 ± 2.2 kg/m3
mass density ([2]; x2 = 0.582): 843.4 ± 2.2 kg/m3
mass density ([2]; x2 = 0.7227): 854.5 ± 2.3 kg/m3
mass density ([2]; x2 = 0.8635): 865.1 ± 2.3 kg/m3
mass density ([2]; x2 = 0.9457): 871.2 ± 2.3 kg/m3

CC(=O)CC(C)C [4-methylpentan-2-one] + Cc1ccc(C)cc1
viscosity ([2]; x2 = 0): 0.55 ± 0.015 mPa·s
viscosity ([2]; x2 = 0.059): 0.553 ± 0.015 mPa·s
viscosity ([2]; x2 = 0.1454): 0.556 ± 0.015 mPa·s
viscosity ([2]; x2 = 0.2887): 0.562 ± 0.015 mPa·s
viscosity ([2]; x2 = 0.4325): 0.567 ± 0.015 mPa·s
viscosity ([2]; x2 = 0.5735): 0.572 ± 0.015 mPa·s
viscosity ([2]; x2 = 0.7166): 0.579 ± 0.015 mPa·s
viscosity ([2]; x2 = 0.8587): 0.591 ± 0.016 mPa·s
viscosity ([2]; x2 = 0.9419): 0.6 ± 0.016 mPa·s
speed of sound ([2]; x2 = 0): 1215 ± 5 m/s
speed of sound ([2]; x2 = 0.059): 1215 ± 5 m/s
speed of sound ([2]; x2 = 0.1454): 1226 ± 5 m/s
speed of sound ([2]; x2 = 0.2887): 1248 ± 5 m/s
speed of sound ([2]; x2 = 0.4325): 1267 ± 5 m/s
speed of sound ([2]; x2 = 0.5735): 1284 ± 5 m/s
speed of sound ([2]; x2 = 0.7166): 1300 ± 5 m/s
speed of sound ([2]; x2 = 0.8587): 1311 ± 5 m/s
speed of sound ([2]; x2 = 0.9419): 1315 ± 5 m/s
mass density ([2]; x2 = 0): 796 ± 2.1 kg/m3
mass density ([2]; x2 = 0.059): 800.1 ± 2.1 kg/m3
mass density ([2]; x2 = 0.1454): 805.8 ± 2.1 kg/m3
mass density ([2]; x2 = 0.2887): 814.9 ± 2.1 kg/m3
mass density ([2]; x2 = 0.4325): 823.6 ± 2.2 kg/m3
mass density ([2]; x2 = 0.5735): 832.2 ± 2.2 kg/m3
mass density ([2]; x2 = 0.7166): 840.5 ± 2.2 kg/m3
mass density ([2]; x2 = 0.8587): 848.4 ± 2.2 kg/m3
mass density ([2]; x2 = 0.9419): 853 ± 2.2 kg/m3

Cc1ccccc1C [1,2-dimethylbenzene]
viscosity [1]: 0.769 ± 0.02 mPa·s
speed of sound [1]: 1349 ± 5 m/s
mass density [1]: 875.2 ± 2.3 kg/m3

Cc1ccc(C)cc1 [1,4-dimethylbenzene] + CC(=O)CC(C)C
viscosity ([2]; x1 = 1): 0.609 ± 0.016 mPa·s
speed of sound ([2]; x1 = 1): 1316 ± 5 m/s
mass density ([2]; x1 = 1): 856.1 ± 2.3 kg/m3

Cc1cccc(C)c1 [1,3-dimethylbenzene]
viscosity [1]: 0.587 ± 0.016 mPa·s
speed of sound [1]: 1323 ± 5 m/s
mass density [1]: 859.4 ± 2.3 kg/m3

CC(=O)CC(C)C [4-methylpentan-2-one]
viscosity [1]: 0.55 ± 0.015 mPa·s
speed of sound [1]: 1215 ± 5 m/s
mass density [1]: 796 ± 2.1 kg/m3
